Test results published in patent US20220194939A1, “Novel compounds and methods of use treating fructose-related disorders or diseases” (Colorado Research Partners, LLC, priority 2019, published 2022).
Where a name gives a salt, the structure may show the parent alone.

Target: T1, KHK (Homo sapiens, UniProt P50053)
T1 construct: (His)6 tag (N); thrombin cleavage site (N); made in house; host or cells: E. coli BL-21 (DE3)
T1 sequence (P50053 1-298): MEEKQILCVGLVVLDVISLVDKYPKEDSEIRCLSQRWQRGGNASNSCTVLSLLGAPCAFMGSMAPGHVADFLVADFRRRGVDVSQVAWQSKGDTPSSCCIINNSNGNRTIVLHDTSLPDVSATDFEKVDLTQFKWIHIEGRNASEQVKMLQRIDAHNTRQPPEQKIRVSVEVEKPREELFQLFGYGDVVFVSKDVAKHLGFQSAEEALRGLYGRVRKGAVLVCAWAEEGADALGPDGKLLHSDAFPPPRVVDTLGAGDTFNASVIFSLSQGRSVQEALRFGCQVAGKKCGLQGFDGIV
Test: coupled enzyme assay for KHK activity
Assay type: biochemical
Settings: purified human recombinant KHK, PK/LDH coupled assay, A340 at 25° C., 0.1 mM ATP, 0.2 mM fructose; isoform (KHK-C or KHK-A) not given
Text: Specific coupled enzyme screening assays were developed for KHK-C and KHK-A using recombinant proteins. Purified human recombinant KHK-C and KHK-A were produced using by expression in E. coli BL-21 (DE3) using IPTG induction as a His-tagged fusion proteins and purified using Ni-NTA chromatography on His-Trap FF columns. For KHK-C, the coding region from NCBI refseq number NM_006488 was inserted at the Nde I site of pET28a(+) vector, which puts it downstream from an amino-terminal (His)6 tag and a thrombin cleavage site. The same was done for KHK-A using the coding regions from NCBI refseq number NM_000221.2. The protein was expressed in BL-21 (DE3) using IPTG induction and purified using Ni-NTA (GE His Trap FF) column. The protein was washed with 100 column volumes, eluted with 3 column volumes, and dialyzed with HEPES, pH 7.4 buffers containing 20, 500, and 0 mM imidazole, respectively. The dialysate was concentrated by ultrafiltration (10kD MWCO) to >15 mg/mL protein. The protein prep was >95% pure on SDS-PAGE and the molecular weight was confirmed by relative mobility to be 33,730 Da (34,826 expected).
The assay uses the product of the KHK reaction, ADP, to drive a signal measured in real time for measuring the reaction rate. This consists of a 3-step, coupled-enzyme process by which pyruvate kinase (PK), which converts the ADP from the KHK reaction along with phosphoenolpyruvate (PEP) to ATP and pyruvate, respectively. The pyruvate is converted along with NADH to lactate and NAD+ by lactate dehydrogenase (LDH). The disappearance of NADH is measured kinetically by monitoring A340 at 25° C. for 15 minutes. The enzymatic assay was carried out in a total reaction volume of 200 μL containing 33 mM triethanolamine-HCl, pH 7.4, 6 mM MgCl2, 100 mM KCl, 0.1 mM ATP, 1.33 mM PEP, 0.3 mM NADH, 0.2-1.0 U of PK, 0.2-1.0 U of LDH, and 150-240 nM KHK-C or KHK-A (0.01-0.02 U). Fructose was added to initiate the reactions to 0.2 mM, except for the no fructose controls which utilized water. This high-throughput assay was used to identify inhibitors that have an IC50 value<1 μM for KHK-C and to confirm that those values for KHK-A were not more than 2-fold lower.

Structure (SMILES)	IC50
Cc1cccc(-n2ncc3ccc(NC(=O)[C@H]4CC[C@@H]4N)cc32)c1 (relative stereo) [Compound 9, trans-2-amino-N-(1-(m-tolyl)-1H-indazol-6-yl)cyclobutanecarboxamide hydrochloride]	0.67 µM
Cc1cccc(-n2ncc3ccc(NC(=O)[C@H](N)CO)cc32)c1 [Compound 2, (R)-2-amino-3-hydroxy-N-(1-(m-tolyl)-1H-indazol-6-yl)propanamide hydrochloride]	0.12 µM
Cc1cccc(-n2ncc3ccc(NC(=O)[C@@H](N)CO)cc32)c1 [Compound 3, (S)-2-amino-3-hydroxy-N-(1-(m-tolyl)-1H-indazol-6-yl)propanamide hydrochloride]	0.04 µM
Cc1cccc(-n2ncc3ccc(NC(=O)[C@H](CN)CO)cc32)c1 [Compound 4, (R)-3-amino-2-(hydroxymethyl)-N-(1-(m-tolyl)-1H-indazol-6-yl)propanamide hydrochloride]	0.62 µM
Cc1cccc(-n2ncc3ccc(NC(=O)[C@H](C)N)cc32)c1 [Compound 6, (S)-2-amino-N-(1-(m-tolyl)-1H-indazol-6-yl)propanamide hydrochloride]	0.11 µM
Cc1cccc(-n2ncc3ccc(NC(=O)[C@@H](C)N)cc32)c1 [Compound 7, (R)-2-amino-N-(1-(m-tolyl)-1H-indazol-6-yl)propanamide hydrochloride]	0.27 µM
Cc1cccc(-n2ncc3ccc(NC(=O)C(CN)C(C)C)cc32)c1 (stereo not drawn) [Compound 8, 2-(aminomethyl)-3-methyl-N-(1-(m-tolyl)-1H-indazol-6-yl)butanamide hydrochloride]	4.9 µM
Cc1cccc(-n2ncc3ccc(NC(=O)[C@@H](N)CCO)cc32)c1 [Compound 10, (S)-2-amino-4-hydroxy-N-(1-(m-tolyl)-1H-indazol-6-yl)butanamide hydrochloride]	0.4 µM
Cc1cccc(-n2ncc3ccc(NC(=O)[C@H](N)CCO)cc32)c1 [Compound 12, (R)-2-amino-4-hydroxy-N-(1-(m-tolyl)-1H-indazol-6-yl)butanamide hydrochloride]	0.86 µM
Cc1cccc(-n2ncc3ccc(NC(=O)[C@@H](N)CCN)cc32)c1 [Compound 13, (S)-2,4-diamino-N-(1-(m-tolyl)-1H-indazol-6-yl)butanamide]	0.35 µM
Cc1cccc(-n2ncc3ccc(NC(=O)[C@H](N)CN)cc32)c1 [Compound 14, (R)-2,3-diamino-N-(1-(m-tolyl)-1H-indazol-6-yl)propanamide dihydrochloride]	1.1 µM
Cc1cccc(-n2ncc3ccc(NC(=O)[C@H]4C[C@@H](N)C4)cc32)c1 [Compound 16, (cis)-3-amino-N-(1-(m-tolyl)-1H-indazol-6-yl)cyclobutanecarboxamide hydrochloride]	0.6 µM
Cc1cccc(-n2ncc3ccc(NC(=O)[C@@H](N)[C@H](C)O)cc32)c1 [Compound 17, (2S,3S)-2-amino-3-hydroxy-N-(1-(m-tolyl)-1H-indazol-6-yl)butanamide hydrochloride]	7 µM
Cc1cccc(-n2ncc3c(F)cc(NC(=O)[C@H]4NCC[C@@H]4O)cc32)c1 [Compound 19, (2S,3S)-N-(4-fluoro-1-(m-tolyl)-1H-indazol-6-yl)-3-hydroxypyrrolidine-2-carboxamide hydrochloride]	0.52 µM
Cc1cccc(-n2ncc3ccc(NC(=O)[C@@H](N)C(C)(C)O)cc32)c1 [Compound 21, (S)-2-amino-3-hydroxy-3-methyl-N-(1-(m-tolyl)-1H-indazol-6-yl]butanamide hydrochloride]	3.6 µM
Cc1cccc(-n2ncc3ccc(NC(=O)[C@@](C)(N)CO)cc32)c1 [Compound 22, (S)-2-amino-3-hydroxy-2-methyl-N-(1-(m-tolyl)-1H-indazol-6-yl)propanamide hydrochloride]	0.42 µM
Cc1cccc(-n2ncc3c(F)cc(NC(=O)[C@@H](N)CO)cc32)c1 [Compound 23, (S)-2-amino-N-(4-fluoro-1-(m-tolyl)-1H-indazol-6-yl)-3-hydroxypropanamide hydrochloride]	0.024 µM
Cc1cccc(-n2ncc3ccc(NC(=O)[C@@H](N)COC(=O)c4cccnc4)cc32)c1 [Compound 25, (S)-2-amino-3-oxo-3-((1-(m-tolyl)-1H-indazol-6-yl)amino)propyl nicotinate hydrochloride]	> 1000 µM
CC(=O)OC[C@H](NC(=O)OC(C)C)C(=O)Nc1ccc2cnn(-c3cccc(C)c3)c2c1 [Compound 31, (S)-2-((isopropoxycarbonyl)amino)-3-oxo-3-((1-(m-tolyl)-1H-indazol-6-yl)amino)propyl acetate]	30 µM
CCOC(=O)N[C@@H](COC(=O)c1cccnc1)C(=O)Nc1ccc2cnn(-c3cccc(C)c3)c2c1 [Compound 32, (S)-2-((ethyloxycarbonyl)amino)-3-oxo-3-((1-(m-tolyl)-1H-indazol-6-yl)amino)propyl nicotinate]	> 1000 µM

Results, then the molecule that gave them:

IC50	Structure (SMILES)
0.12 µM	Cc1cccc(-n2ncc3ccc(NC(=O)C(N)CO)cc32)c1 (stereo not drawn) [Compound 1, 2-amino-3-hydroxy-N-(1-(m-tolyl)-1H-indazol-6-yl)propanamide hydrochloride]
1.2 µM	Cc1cccc(-n2ncc3ccc(NC(=O)C[C@H](N)CO)cc32)c1 [Compound 11, (S)-3-amino-4-hydroxy-N-(1-(m-tolyl)-1H-indazol-6-yl)butanamide hydrochloride]
0.63 µM	Cc1cccc(-n2ncc3ccc(NC(=O)[C@@H](N)CN)cc32)c1 [Compound 15, (S)-2,3-diamino-N-(1-(m-tolyl)-1H-indazol-6-yl)propanamide dihydrochloride]
0.7 µM	Cc1cccc(-n2ncc3ccc(NC(=O)[C@H]4NCC[C@@H]4O)cc32)c1 [Compound 18, (2S,3S)-3-hydroxy-N-(1-(m-tolyl)-1H-indazol-6-yl)pyrrolidine-2-carboxamide hydrochloride]
0.72 µM	Cc1cccc(-n2ncc3ccc(NC(=O)[C@@H](N)[C@@H](C)O)cc32)c1 [Compound 20, (2S,3R)-2-amino-3-hydroxy-N-(1-(m-tolyl)-1H-indazol-6-yl)butanamide hydrochloride]
12 µM	CCCCCCCC(=O)OC[C@H](N)C(=O)Nc1ccc2cnn(-c3cccc(C)c3)c2c1 [Compound 24, (S)-2-amino-3-oxo-3-((1-(m-tolyl)-1H-indazol-6-yl)amino)propyl octanoate hydrochloride]
8 µM	CCCCCCCC(=O)OC[C@H](N)C(=O)Nc1cc(F)c2cnn(-c3cccc(C)c3)c2c1 [Compound 26, (S)-2-amino-3-((4-fluoro-1-(m-tolyl)-1H-indazol-6-yl)amino)-3-oxopropyl octanoate hydrochloride]
24 µM	CCOC(=O)N[C@@H](COC(C)=O)C(=O)Nc1ccc2cnn(-c3cccc(C)c3)c2c1 [Compound 30, (S)-2-((ethyloxycarbonyl)amino)-3-oxo-3-((1-(m-tolyl)-1H-indazol-6-yl)amino)propyl acetate]
> 1000 µM	Cc1cccc(-n2ncc3ccc(NC(=O)[C@H](COC(=O)c4cccnc4)NC(=O)OC(C)C)cc32)c1 [Compound 33, (S)-2-((isopropoxycarbonyl)amino)-3-oxo-3-((1-(m-tolyl)-1H-indazol-6-yl)amino)propyl nicotinate]
> 1000 µM	CCCCCCCC(=O)OC[C@H](NC(=O)OCC)C(=O)Nc1ccc2cnn(-c3cccc(C)c3)c2c1 [Compound 34, (S)-2-((ethoxycarbonyl)amino)-3-oxo-3-((1-(m-tolyl)-1H-indazol-6-yl)amino)propyl octanoate]
